Test results taken from US20080139650A1, “Fungicidally Active Polymer Dispersions And Use Thereof” (CELANESE EMULSIONS GMBH, priority 2004, published 2008).

System: spores of Aspergillus niger and Aspergillus versicolor
Assay: ISO 846 Method B: determination of the fungistatic activity of films, complete nutrient medium with carbon source
Type: cell-based
Settings: summary of ISO 846 loading tests (methods A and B)
Protocol: Commercially conventional dispersions based on poly(vinyl alcohol)-stabilized poly(dibutyl maleinate-co-vinyl acetate) were, where necessary, set to the required pH using 10% strength sodium hydroxide solution and subsequently finished with fungicide. In addition, to the dispersion was added either a 1% strength ethanolic solution of the fungicide or an aqueous suspension which had been prepared by weighing out exactly 500 mg of fungicide into a 50 ml measuring flask and subsequently making up to 50 ml with deionized water to the calibration mark. After addition, the substance was distributed well in the dispersion and approximately 200 μm thick films were produced using a drawing frame with wet application of 400 μm.
The action of these films on microorganisms was determined using the method ISO 846.
The samples were applied to a complete nutrient medium (with carbon source) and inoculated with a spore suspension of various fungi. […] Method B is intended to reflect the situation of a surface contamination of the sample in practice (such as dirt or organic deposits).
The inoculum in all the determinations was performed using spores of Aspergillus niger and Aspergillus versicolor.
The samples, after expiry of the incubation period of 28 days, were assessed in methods A and B using the following rating key in accordance with ISO 846 (a, b=individual results of duplicate determination).

`Oc1ccc(/C=C/c2cc(O)cc(O)c2)cc1` [trans-resveratrol, trans-3,5,4′-trihydroxystilbene] was tested, and the “fungicidal activity in polymer dispersions made into films” value was “exhibits fungicidal activity”.
